Results on 33 molecules are retold here after patent publication US6344562B1, “Thiazole derivatives” (Hoffmann-La Roche Inc., priority 1998, dated 2002).

Structures can show the parent of a compound that is named as a salt.

For orientation: melting point means the temperature, or range, at which the solid turns liquid.

In turn, `COC(=O)[C@H](CCCCNC(=O)c1csc(NC(=O)NCc2ccccc2)n1)NC(=O)OC(C)(C)C` [Example 145, methyl (S)-6-{[2-(3-benzyl-ureido)-thiazole-4-carbonyl]-amino}-2-tert-butoxycarbonylamino-hexanoate] displayed a melting point of 166 °C.

Molecule `O=C(O)C[C@H](NC(=O)CNC(=O)c1csc(NC(=O)NCc2ccccc2)n1)C(=O)O` (as salt: trifluoroacetate) [Example 158, (S)-2-(2-{[2-(3-benzyl-ureido)-thiazole-4-carbonyl]-amino}-acetylamino)-succinic acid] displayed a melting point of 183 °C.

`O=C(O)C[C@H](NC(=O)CNC(=O)c1csc(NC(=O)NCc2ccccc2)n1)C(=O)N[C@H](C(=O)O)c1ccccc1` (as salt: trifluoroacetate) [Example 144, (S)-3-[2-[[2-(3-benzyl-ureido)-thiazole-4-carbonyl]-amino]-acetyl-amino]-N-[(S)-carboxy-phenyl-methyl)-succinamic acid] gave a melting point of 126 to 130 °C.

In the case of `O=C(O)C[C@H](NC(=O)CNC(=O)c1csc(NC(=O)NCc2ccccc2)n1)C(=O)Nc1ccccc1C(=O)O` [Example 136, (S)-2-[2-(2-{[2-(3-benzyl-ureido)-thiazole-4-carbonyl]-amino}-acetylamino)-3-carboxy-propionylamino]-benzoic acid], the melting point was determined as 192 °C.

As to `CCCc1nc(NC(=N)N)sc1-c1cccc(NC(=O)CC(CC(=O)O)c2ccccc2)c1` (racemic) [Example 92, rac-4-[3-(2-guanidino-4-propyl-thiazol-5-yl)-phenylcarbamoyl]-3-phenyl-butyric acid], the melting point was 245 to 247 °C (dec.).

The molecule `CCOC(=O)CCNC(=O)CNC(=O)c1csc(NC(=O)NCc2ccccc2)n1` [Example 131, ethyl 3-[2-[[2-(3-benzyl-ureido)-thiazole-4-carbonyl]-amino]-acetylamino]-propionate] returned a melting point of 187 °C.

The molecule `O=C(O)C[C@H](NC(=O)CNC(=O)c1csc(NC(=O)NCc2ccccn2)n1)C(=O)NCc1ccccn1` [Example 168, (S)-N-pyridin-2-ylmethyl-3-(2-{[2-(3-pyridin-2-ylmethyl-ureido)-thiazole-4-carbonyl]-amino}-acetylamino)-succinamic acid] gave a melting point of 164 °C.

For `CC(C)(C)OC(=O)C[C@H](NC(=O)CNC(=O)c1csc(NC(=O)NCc2ccccc2)n1)C(=O)OC(C)(C)C` (as salt: succinate) [Example 157, di-tert-butyl (S)-2-(2-{[2-(3-benzyl-ureido)-thiazole-4-carbonyl]-amino}-acetylamino)-succinate], the melting point was in the range of 111 to 114 °C.

Consider `N=C(N)Nc1nc(C(=O)NCCC(=O)NC(CC(=O)O)c2ccccc2)cs1` (racemic) [Example 25, rac-3-[3-[(2-guanidino-thiazole-4-carbonyl)-amino]-propionylamino]-3-phenyl-propionic acid], for which the melting point was 105 to 107 °C (dec.).

Regarding `CCCCCc1nc(NC(=N)N)sc1-c1cccc(NC(=O)CC(CC(=O)O)c2ccccc2)c1` (racemic) [Example 94, rac-4-[3-(2-guanidino-4-pentyl-thiazol-5-yl)-phenylcarbamoyl]-3-phenyl-butyric acid], the melting point was 186 to 188 °C (dec.).

`O=C(O)CCCCCNC(=O)c1csc(NC(=O)NCc2ccccc2)n1` [Example 138, 6-{[2-(3-benzyl-ureido)-thiazole-4-carbonyl]-amino}-hexanoic acid] displayed a melting point of 178 °C.

On to `CCOC(=O)CC(CCCCNC(=O)c1sc(N=C2NCCCN2)nc1C)c1ccccc1` (racemic) [Example 173, ethyl rac-7-[[4-methyl-2-(tetrahydro-pyrimidin-2-ylideneamino)-thiazole-5-carbonyl]-amino]-3-phenyl-heptanoate], for which the melting point is 137 to 139 °C.

Molecule `N=C(N)Nc1nc(C(=O)NCC(=O)NC(CC(=O)O)c2cccnc2)cs1` (racemic) [Example 81, (RS)-3-{2-[(2-guanidino-thiazole-4-carbonyl)-amino]-acetylamino}-3-pyridin-3-yl-propionic acid] came in with a melting point of 186 °C.

Turning to `O=C(O)CCCC(=O)CNC(=O)c1csc(NC(=O)NCc2ccccn2)n1` (as salt: hydrochloride) [Example 150, 5-oxo-6-{[2-(3-pyridin-2-ylmethyl-ureido)-thiazole-4-carbonyl]-amino}-hexanoic acid], the melting point was determined as 199 °C.

Molecule `CCOC(=O)CC(NC(=O)CCNC(=O)c1csc(NC(=N)N)n1)c1ccccc1` (racemic) [Example 24, ethyl rac-3-[3-[(2-guanidino-thiazole-4-carbonyl)-amino]-propionylamino]-3-phenyl-propionate] showed a melting point of 85 to 87 °C.

For `Cl.Cl.O=C(O)CC(NC(=O)CNC(=O)c1csc(N=C2NCCN2)n1)c1cccnc1` (stereo not drawn), the melting point is 170 to 172 °C.

`O=C(O)CCNC(=O)c1cccc(NC(=O)c2csc(NC(=O)NCc3ccccc3)n2)c1` [Example 170, 3-(3-{[2-(3-benzyl-ureido)-thiazole-4-carbonyl]-amino}-benzoylamino)-propionic acid] returned a melting point of 157 °C.

As for `CCOC(=O)CC(NC(=O)CNC(=O)c1csc(N=C2NCCN2)n1)c1cccnc1` (racemic) [Example 171, ethyl (RS)-3-(2-{[2-(imidazolidin-2-ylidenamino)-thiazole-4-carbonyl]-amino}-acetylamino)-3-pyridin-3-yl-propionate], the melting point lay in the range of 198 to 199 °C.

Consider `CCOC(=O)CC(CCCNC(=O)c1csc(NC(=O)NCc2ccccc2)n1)C(=O)NCc1ccccc1` (racemic) [Example 147, ethyl rac-3-benzylcarbamoyl-6-{[2-(3-benzyl-ureido)-thiazole-4-carbonyl]-amino}-hexanoate], for which the melting point was determined as 128 °C.

Take `CC(C)(C)OC(=O)N[C@H](Cc1ccc(NC(=O)c2csc(NC(=O)NCc3ccccc3)n2)cc1)C(=O)O` [Example 166, (R)-3-[4-[[2-(3-benzyl-ureido)-thiazole-4-carbonyl]-amino]-phenyl]-2-tert-butoxycarbonylamino-propionic acid]: the melting point came out at 232 °C.

`CC(C)(C)OC(=O)C[C@H](NC(=O)CNC(=O)c1csc(NC(=O)NCc2ccccc2)n1)C(=O)NCc1cccnc1` [Example 163, tert-butyl (S)-3-[2-[[2-(3-benzyl-ureido)-thiazole-4-carbonyl]-amino]-acetylamino]-N-pyridin-3-ylmethyl-succinamate] returned a melting point of 185 °C.

As to `CCOC(=O)CC(NC(=O)CNC(=O)c1csc(NC(=N)N)n1)c1ccccc1` (racemic) [Example 22, ethyl rac-3-[2-[(2-guanidino-thiazole-4-carbonyl)-amino]-acetylamino]-3-phenyl-propionate], the melting point is 177 to 178 °C (dec.).

`CCOC(=O)CCCC(=O)CNC(=O)c1csc(NC(=O)NCc2ccccc2)n1` [Example 82, ethyl 6-{[2-(3-benzyl-ureido)-thiazole-4-carbonyl]-amino}-5-oxo-hexanoate] displayed a melting point of 135 to 136 °C.

`Cc1nc(NC(=N)N)sc1C(=O)NCCCCC(CC(=O)O)c1ccccc1` (racemic) [Example 85, (RS)-7-[(2-guanidino-4-methyl-thiazole-5-carbonyl)-amino]-3-phenyl-heptanoic acid] returned a melting point of 125 °C.

As for `N=C(N)Nc1nc(C(=O)NCC(=O)NC(CC(=O)O)c2ccccc2)cs1` (racemic) (as salt: hydrochloride) [Example 23, rac-3-[2-[(2-guanidino-thiazole-4-carbonyl)-amino]-acetylamino]-3-phenyl-propionic acid], the melting point was 202 to 205 °C.

Take `CC(C)(C)OC(=O)C[C@H](NC(=O)CNC(=O)c1csc(NC(=O)NCc2ccccc2)n1)C(=O)NCc1ccccc1` [Example 129, tert-butyl (S)-N-benzyl-3-[2-[[2-(3-benzyl-ureido)-thiazole-4-carbonyl]-amino]-acetylamino]-succinamate]: the melting point worked out at 123 °C.

Regarding `CCOC(=O)CC(CCCNC(=O)c1csc(NC(=O)NCc2ccccc2)n1)c1ccccc1` (racemic) [Example 14, ethyl (RS)-6-{[2-(3-benzyl-ureido)-thiazole-4-carbonyl]-amino}-3-phenyl-hexanoate], the melting point amounted to 93 °C.

In turn, `N=C(N)Nc1nc(C(=O)Nc2cccc(C(=O)NC(CC(=O)O)c3ccccc3)c2)cs1` (racemic) [Example 19, (RS)-3-{3-[(2-guanidino-thiazole-4-carbonyl)-amino]-benzoylamino}-3-phenyl-propionic acid] displayed a melting point of 235 °C.

Turning to `CCOC(=O)CC(CC(=O)CNC(=O)c1csc(NC(=O)NCc2ccccc2)n1)C(=O)OCC` (racemic) (as salt: succinate) [Example 155, diethyl rac-2-[3-[[2-(3-benzyl-ureido)-thiazole-4-carbonyl]-amino]-2-oxo-propyl]-succinate], the melting point lay in the range of 126 to 129 °C.

For `CC(C)(C)OC(=O)C[C@H](NC(=O)CNC(=O)c1csc(NC(=O)NCc2ccccc2)n1)C(=O)NCc1ccccn1` [Example 161, tert-butyl (S)-3-[2-[[2-(3-benzyl-ureido)-thiazole-4-carbonyl]-amino]-acetylamino]-N-pyridin-2-ylmethyl-succinamate], the melting point amounted to 108 °C.

For `CCOC(=O)CC(NC(=O)c1cc(NC(=O)c2sc(NC(=N)N)nc2C)cc(OCc2ccccc2)c1)c1ccccc1` (racemic) [Example 74, ethyl (RS)-3-{3-benzyloxy-5-[(2-guanidino-4-methyl-thiazole-5-carbonyl)-amino]-benzoylamino}-3-phenyl-propionate], the melting point is 116 °C.

In turn, `CC(C)(C)OC(=O)N[C@@H](CCCCNC(=O)c1csc(NC(=O)NCc2ccccc2)n1)C(=O)O` [Example 146, (S)-6-{[2-(3-benzyl-ureido)-thiazole-4-carbonyl]-amino}-2-tert-butoxycarbonylamino-hexanoic acid] yielded a melting point of 138 °C.

Take `CCOC(=O)CC(CCCCNC(=O)c1sc(NC(=N)N)nc1C)c1ccccc1` (racemic) [Example 84, ethyl (RS)-7-[(2-guanidino-4-methyl-thiazole-5-carbonyl)-amino]-3-phenyl-heptanoate]: the melting point came to 138 °C.
